From BindingDB's records for doi:10.1016/j.bmc.2015.09.025 (Sookmyung Women'S University, 2015)

Test: Antiosteoclast activity in mouse BMM cells assessed as reduction of RANKL-induced osteoclasts differentiation by measuring TRAP positive multinucleated cells after 4 days by light microscopy

SMILES	IC50
CCc1ccc(Nc2nc3cc(NC(=O)CCCCOc4ccc(/C(N)=N/O)cc4)ccc3o2)cc1	1310 nM
N/C(=N\O)c1ccc(OCCCCC(=O)Nc2ccc3oc(Nc4ccccc4)nc3c2)cc1	560 nM
COc1ccc(Nc2nc3cc(NC(=O)CCCCOc4ccc(/C(N)=N/O)cc4)ccc3o2)cc1	580 nM
CC(c1cc2ccccc2s1)N(O)C(N)=O (racemic) [Leutrol]	> 20000 nM
